Data on 12 molecules can be found in publication PMC3285636, “Identification by Virtual Screening and In Vitro Testing of Human DOPA Decarboxylase Inhibitors” (PLoS ONE, 2012).

The IC50 is the point on the concentration scale where inhibition reaches its midpoint. As a reminder, the Ki is a measure of affinity in units of concentration, obtained from inhibition or displacement. Usually Kd stands for the equilibrium constant for the complex coming apart.

One data set deals with pig kidney DDC. Conditions: cited from earlier work.
On the set-up of data set [1]: method as in PMID 580398. Conditions: animals and humans; cited from earlier work.
For data set [2], the target named is T1, human DDC (Homo sapiens, UniProt P20711).
T1 construct: made in house
T1 sequence (P20711 1-480): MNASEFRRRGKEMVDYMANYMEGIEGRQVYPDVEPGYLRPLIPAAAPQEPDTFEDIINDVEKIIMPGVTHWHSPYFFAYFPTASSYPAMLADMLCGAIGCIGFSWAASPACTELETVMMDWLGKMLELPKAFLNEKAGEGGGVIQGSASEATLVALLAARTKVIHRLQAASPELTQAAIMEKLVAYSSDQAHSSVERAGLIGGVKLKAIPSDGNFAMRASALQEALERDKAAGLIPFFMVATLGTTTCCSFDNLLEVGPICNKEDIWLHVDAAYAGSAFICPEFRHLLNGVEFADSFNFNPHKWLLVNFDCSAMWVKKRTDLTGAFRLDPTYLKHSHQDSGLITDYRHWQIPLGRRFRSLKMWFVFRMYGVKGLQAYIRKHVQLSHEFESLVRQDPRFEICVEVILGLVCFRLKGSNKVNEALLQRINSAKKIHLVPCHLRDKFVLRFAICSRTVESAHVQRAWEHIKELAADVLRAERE
Description: Assay of the inhibitory activity: spectrophotometric measurement of dopamine production by DDC. The format is biochemical. Conditions: for IC50: 0.1 mM L-Dopa, pH 7.4, 25°C, 9 concentrations in duplicate; for BE (binding efficiency): binding energy per unit of mass, from Ki and molecular weight in kDa; for Inhibition profile: type of inhibition from Lineweaver–Burk plots. How it is done: DDC activity was determined by measuring the production of dopamine with a spectrophotometric assay outlined by Sherald et al. and modified by Charteris and John. The reaction was carried out in 0.1 M potassium phosphate buffer pH 7.4 at 25°C for 1 min and stopped by inactivation of the enzyme at 100°C for 90 sec. The inhibitory assay was performed by measuring the decarboxylase activity of DDC with 50 nM enzyme, 0.1 mM L-Dopa, and 10 µM PLP in the presence and in the absence of a fixed amount of each compound. Various amounts of dimethyl sulphoxyde (DMSO) were necessary to solubilize the compounds in 100 mM potassium phosphate buffer, pH 7.4. […] Compounds were evaluated at 9 concentrations, and each in duplicate. IC50 values were derived by nolinear regression analysis. The related inhibition type of the compounds on human DDC was identified from Lineweaver–Burk plots, and Ki and/or Ki′ values for the inhibitors tested were calculated by the software Origin 7.0.

Data set [3] addresses T1, human DDC. Description: Enzyme-ligand equilibrium dissociation constant from visible CD signal changes of DDC. The class given is binding. Conditions: change of 420 nm or 335 nm CD band, 100 mM potassium phosphate pH 7.4. How it is done: The equilibrium dissociation constant for each tested compound from DDC was determined by monitoring the decrease in the 420 nm CD signal of DDC (7 µM) in the presence of various ligand concentrations in 100 mM potassium phosphate buffer, pH 7.4. In any case, the maximun DMSO concentration in the mixture was kept lower than 1% (v/v). The KD values were obtained from the fitting of the data to the equation [drawing 3] where [E]t and [L]t represent the total concentrations of DDC dimer and ligand, respectively, Y refers to the visible CD signal change at 420 nm at the ligand concentration [L], and Ymax refers to the CD signal when all enzyme molecules are complexed with the ligand. CD measurements were performed with a Jasco J-710 spectropolarimeter using quartz cuvettes with 1 cm path length.

Where [4] appears, read: 50 nM enzyme, L-Dopa, 10 µM PLP, 0.1 M potassium phosphate pH 7.4, 25°C, from Lineweaver–Burk plots, read-out: Ki.
The mark [5] stands for this setting: 50 nM enzyme, 10 µM PLP, read-out: IC50.
Where [6] appears, read: Ki, competitive inhibition, Table 4, third screening.

Where two headings read alike, the source gives them in different places.

For the molecule `NC(CO)C(=O)NNCc1ccc(O)c(O)c1O` (stereo not drawn) [benserazide, trihydroxybenzylhydrazine seryl derivative], the “DDC inhibition in words” value in the data set with pig kidney DDC is on record as “not a powerful DDC inhibitor”. Further, the “Metabolism before reaching the arterial blood” value in data set [1] is “completely metabolized before it reaches the arterial blood”.
`Oc1cccc(/C=N/n2c(S)nnc2-c2ccccc2)c1O` [Compound 23] gave an IC50 against human DDC [2] (50 nM enzyme, 10 µM PLP) of 16.6 ± 0.3 µM. The Ki at human DDC [2] (setting [4]) is below 10 µM. Moreover, the inhibitory constant (Ki) at human DDC [2] (Ki, 50 nM enzyme, L-Dopa, 10 µM PLP, 0.1 M potassium phosphate pH 7.4, 25°C, from Lineweaver–Burk plots) was determined as 5.7 ± 0.1 µM. Moreover, at human DDC [2], the “BE (binding efficiency)” value is 16.8 and the Inhibition profile entry was “competitive inhibitors”. The molecule also showed a Kd at human DDC [3] of 4.7 ± 0.5 µM.
Turning to `Oc1cccc(/C=N/n2c(S)nnc2-c2ccc(Cl)cc2Cl)c1O` [Compound 11], the IC50 at human DDC [2] (setting [5]) worked out at 27.3 ± 1.6 µM. Besides, at human DDC [2] (setting [4]), the Ki was 10.7 ± 2.4 µM. For the same molecule, at human DDC [2] (at a concentration in which solubility of the compound was maximum), the “Inhibition of DDC activity” value is at least 70%. Moreover, on human DDC [2], the “BE (binding efficiency)” value stood at 13.0 and the Inhibition profile entry is reported as “competitive inhibition”. In addition, binding on human DDC [3] was put at a Kd of 16.1 ± 2.1 µM.
In the case of `Oc1ccc(/C=N/n2c(S)nnc2-c2ccc(Cl)cc2Cl)cc1O` [Compound 30], at human DDC [2] (setting [5]), the 50% inhibitory concentration (IC50) stood at 29.8 ± 4.8 µM. In addition, the Ki on human DDC [2] (setting [4]) is 12.2 ± 0.4 µM. For the same molecule, on human DDC [2], the “BE (binding efficiency)” value is 12.9 and the Inhibition profile result was “competitive inhibitors”. Also, the dissociation constant Kd at human DDC [3] came out at 25.1 ± 3.5 µM.
On to `Oc1ccc(/C=N/n2cnnc2)cc1O` [Compound 38], for which the IC50 on human DDC [2] (setting [5]) was determined as 76 ± 5.8 µM. The inhibition constant (Ki) on human DDC [2] (setting [6]) was found to be 24.5 ± 1.4 µM. For the same molecule, the “BE (binding efficiency)” value at human DDC [2] was 22,6. Besides, the dissociation constant Kd on human DDC [3] is 24.5 ± 4.4 µM.
Take `Oc1cccc(/C=N/n2c(S)nnc2-c2ccccc2Cl)c1` [Compound 28]: the IC50 on human DDC [2] (setting [5]) turned out to be 17 ± 1 µM. For the same molecule, the Ki on human DDC [2] (setting [4]) came out at 14 ± 1 µM. At human DDC [2], the “BE (binding efficiency)” value worked out at 14.7 and the Inhibition profile result is recorded as “competitive inhibitors”. This molecule displayed a Kd on human DDC [3] of 21.1 ± 3.5 µM.
For `NNCc1ccc(O)c(O)c1O` [trihydroxybenzylhydrazine], the “DDC inhibition in words” value with pig kidney DDC is listed as “powerful irreversible DDC inhibitors”.
For the molecule `Oc1ccccc1/C=N/n1c(S)nnc1-c1ccccc1` [Compound 31], the IC50 on human DDC [2] (setting [5]) came out at 83 ± 12 µM. Also, the Ki on human DDC [2] (setting [4]) stood at 33.4 ± 5 µM. At human DDC [2], the “BE (binding efficiency)” value is on record as 15.1 and the Inhibition profile entry is listed as “competitive inhibitors”. Further, the Kd at human DDC [3] came out at 31.7 ± 3.4 µM.
For the molecule `Cc1cccc(-c2nnc(S)n2/N=C/c2ccc(O)c(O)c2)c1` [Compound 43], the concentration for half-maximal inhibition (IC50) on human DDC [2] (setting [5]) amounted to 3.8 ± 0.6 µM. The inhibitory constant (Ki) on human DDC [2] (setting [6]) is 1.9 ± 0.1 µM. For the same molecule, on human DDC [2], the “BE (binding efficiency)” value is 17,5. The same molecule returned a Kd at human DDC [3] of 2.8 ± 0.5 µM.
Turning to `C[C@@](Cc1ccc(O)c(O)c1)(NN)C(=O)O` [carbidopa, L-α-methyl-α-hydrazino-3,4-dihydroxyphenylpropionic acid], the “DDC inhibition in words” value with pig kidney DDC is recorded as “powerful irreversible DDC inhibitors”.
As for `Cc1ccc(-c2nnc(S)n2/N=C/c2ccc(O)c(O)c2)cc1` [Compound 42], on human DDC [2] (setting [5]), the IC50 stood at 5.2 ± 0.4 µM. Affinity on human DDC [2] (setting [6]) was put at a Ki of 2 ± 0.2 µM. Besides, at human DDC [2], the “BE (binding efficiency)” value is reported as 17,5. The Kd on human DDC [3] was 2.7 ± 0.5 µM.
In the case of `Oc1ccc(/C=N/n2c(S)nnc2-c2ccccc2)cc1O` [Compound 37], the IC50 at human DDC [2] (setting [5]) is 2.4 ± 0.3 µM. For the same molecule, the Ki on human DDC [2] (setting [4]) came out at 1.8 ± 1.1 µM. On human DDC [2], the “BE (binding efficiency)” value was determined as 18.4 and the Inhibition profile result is “competitive inhibitors”. This molecule also returned a Kd at human DDC [3] of 1.5 ± 0.2 µM.
